Results taken from patent US4343812A, “Antidepressant 2-amino-and-2-(substituted amino)-cis-hexahydro-carbazoles, compositions and use” (E. I. Du Pont de Nemours and Company, priority 1980, dated 1982).
Structures can show the parent of a compound that is named as a salt. Where two headings read alike, the source gives them in different places.

Tests used:
[1] = test system: tetrabenazine-induced sedation and depression in mice; assay: Antagonism of tetrabenazine-induced depression in mice (prevention of ptosis and exploratory loss), orally at 1 hour post-drug; assay type: in vivo, mice (Carworth CF1 S female); conditions: Mus musculus, oral, tetrabenazine 32 mg/kg intraperitoneally 30 minutes after drug
Description: (Everett, "The Dopa Response Potentiation Test and Its Use in Screening for Antidepressant Drugs", pp. 164-167 in "Antidepressant Drugs" [Proceedings of the First International Symposium], S. Garattini and M. N. G. Dukes, eds., 1967). Groups of 10 Carworth CF1 S female mice, 18-21 g each, were fasted 1.5 hours and were intubated with antagonist compounds at oral doses of 0, 5, 25, and 125 mg/kg or 0, 1, 3, 9, 27, and 81 mg/kg in 0.20 ml of 1% Methocel (methylcellulose). The mice were challenged 30 minutes later with tetrabenazine (as the methane-sulfonate), 32 mg/kg intraperitoneally (dissolved in 0.20 ml 0.05 M KCl at pH 2.0). One hour after antagonist (30 minutes after tetrabenazine), the mice were examined for signs of exploratory activity and ptosis (eyelid closure). Normal exploratory activity (relief from sedation) was recorded when a mouse lifted by the tail from a group of 10 in a testing box and placed on a stainless steel testing box lid (12.5"×8" with 0.33" mesh) either turned its head horizontally 30° in both directions or moved to the edge of the screen within 10 seconds after being placed on the screen. Relief from ptosis was recorded when exactly two seconds after placing the mouse facing the observer, lid closure was less than 50% in both eyes. For comparison, the marketed antidepressant amitriptylene was also tested, and an ED50 (effective dose in 50% of the cases) was determined. The lower the ED50, the better the antidepressant.

[2] = prior art; cited from earlier work
[3] = prior art; cited from earlier work; remark: listed apart in the source
[4] = test system: dogs; conditions: prior art; cited from earlier work
[5] = read-out: ED50 For Prevention of Exploratory Loss
[6] = read-out: ED50 For Prevention of Ptosis

| SMILES | ED50 [1, 5] [mg/kg] | ED50 [1, 6] [mg/kg] | antidepressant activity [2] | analgetic and psychotropic activity [3] | cardiotonic effects [4] |
| --- | --- | --- | --- | --- | --- |
| O=CNC1CCc2c([nH]c3ccccc23)C1 (stereo not drawn) [Compound 3b, N-(1,3,4,9-tetrahydro-2H-carbazol-2-yl)formamide] | > 125 | 84 | – | – | – |
| CC(=O)NC1CCc2c([nH]c3cc(OCc4ccccc4)ccc23)C1 (stereo not drawn) [Compound 2p] | 6.5 | 6.5 | – | – | – |
| Cl.NC1CCc2c([nH]c3ccccc23)C1 (stereo not drawn) [Compound 3a, 2,3,4,9-Tetrahydro-1H-carbazol-2-amine hydrochloride] | 8 | 4 | – | – | – |
| CC(=O)NC1CCc2c(n(C)c3ccccc23)C1 (stereo not drawn) [Compound 3L, N-(1,3,4,9-tetrahydro-9-methyl-2H-carbazol-2-yl)acetamide] | 11.2 | 9 | – | – | – |
| CCCCCCOc1ccc2c3c([nH]c2c1)CC(NC(C)=O)CC3 (stereo not drawn) [Compound 2o] | 12 | 14 | – | – | – |
| COc1ccc2[nH]c3c(c2c1)CCC(NC(C)=O)C3 (stereo not drawn) [Compound 2h, N-(1,3,4,9-tetrahydro-6-methoxy-2H-carbazol-2-yl)acetamide] | 6.5 | 5.8 | – | – | – |
| CCC(=O)NC1CCc2c([nH]c3ccccc23)C1 (stereo not drawn) [Compound 3c, N-(1,3,4,9-tetrahydro-2H-carbazol-2-yl)propanamide] | > 81 | 67 | – | – | – |
| CCCCCOc1ccc2c(c1)N[C@@H]1CC(NC(C)=O)CC[C@H]21 (stereo partly drawn) [Compound 1L] | 2 | 2 | – | – | – |
| CCCCOc1ccc2c(c1)N[C@@H]1CC(NC(C)=O)CC[C@H]21 (stereo partly drawn) [Compound 1k] | 0.35 | 0.22 | – | – | – |
| CCCCC(=O)NC1CCc2c([nH]c3ccccc23)C1 (stereo not drawn) [Compound 3d] | > 81 | > 81 | – | – | – |
| CCCOc1ccc2c(c1)N[C@@H]1CC(NC(C)=O)CC[C@H]21 (stereo partly drawn) [Compound 1j] | 0.99 | 0.79 | – | – | – |
| CCOC(=O)NC1CCc2c([nH]c3ccccc23)C1 (stereo not drawn) [Compound 3e, (1,3,4,9-tetrahydro-2H-carbazol-2-yl)carbamic acid, ethyl ester] | > 81 | 40 | – | – | – |
| CCCCCCOc1ccc2c(c1)N[C@@H]1CC(NC(C)=O)CC[C@H]21 (stereo partly drawn) [Compound 1m] | 27 | 27 | – | – | – |
| CCNC1CCC2c3ccccc3NC2C1 (stereo not drawn) [Compound 1w] | 96 | 68 | – | – | – |
| COc1ccc2c(c1)NC1CC(NC(C)=O)CCC21 (stereo not drawn) [Compound 1h] | 4.2 | 2.2 | – | – | – |
| CCOC(=O)NC1CCC2c3ccccc3NC2C1 (stereo not drawn) [Compound 1s] | 4 | 4 | – | – | – |
| CCOc1ccc2c(c1)N[C@@H]1CC(NC(C)=O)CC[C@H]21 (stereo partly drawn) [Compound 1i] | 12.7 | 8.9 | – | – | – |
| CC(=O)NC1CCc2c([nH]c3ccc(Br)cc23)C1 (stereo not drawn) [Compound 2d, N-(6-bromo-1,3,4,9-tetrahydro-2H-carbazol-2-yl)acetamide] | 17.4 | 10 | – | – | – |
| CC(=O)NC1CC[C@@H]2c3cc(C)ccc3N[C@@H]2C1 (stereo partly drawn) [Compound 1e] | 34 | 16 | – | – | – |

| SMILES | ED50 [1, 5] [mg/kg] | ED50 [1, 6] [mg/kg] | antidepressant activity [2] | analgetic and psychotropic activity [3] | cardiotonic effects [4] |
| --- | --- | --- | --- | --- | --- |
| CC(=O)NC1CCc2c([nH]c3cc(Cl)cc(Cl)c23)C1 (stereo not drawn) [Compound 2f] | 4.7 | 3.3 | – | – | – |
| CC(=O)NC1CCC2c3ccc(OCc4ccccc4)cc3NC2C1 (stereo not drawn) [Compound 1n] | 7.2 | 6.5 | – | – | – |
| O=CNC1CCC2c3ccccc3NC2C1 (stereo not drawn) [Compound 1p] | 21 | 21 | – | – | – |
| CCC(=O)NC1CCC2c3ccccc3NC2C1 (stereo not drawn) [Compound 1q] | 18 | 1.7 | – | – | – |
| CNC1CCC2c3ccccc3NC2C1 (stereo not drawn) [Compound 1v] | 3 | 2.4 | – | – | – |
| CCN1c2ccccc2[C@H]2CCC(NC(C)=O)C[C@H]21 (stereo partly drawn) [Compound 1y, N-(cis-9-ethyl-1,3,4,4a,9,9a-hexahydro-2H-carbazol-2-yl) acetamide] | 5.2 | 4.7 | – | – | – |
| CN(C)C1CCC2c3ccccc3NC2C1 (stereo not drawn) [Compound 1x] | 41 | 37 | – | – | – |
| CC(=O)NC1CCc2c([nH]c3ccc(C)cc23)C1 (stereo not drawn) [Compound 2g] | 7.2 | 3 | – | – | – |
| CC(=O)NC1CCc2c([nH]c3cc(O)ccc23)C1 (stereo not drawn) [Compound 2k, N-(1,3,4,9-tetrahydro-7-hydroxy-2H-carbazol-2-yl)acetamide] | > 125 | > 125 | – | – | – |
| CCNC1CCc2c([nH]c3ccccc23)C1.Cl (stereo not drawn) [Compound 3i, N-ethyl-2,3,4,9-tetrahydro-1H-carbazol-2-amine hydrochloride] | 27 | 27 | – | – | – |
| CC(=O)NC1CCc2c([nH]c3ccc(Cl)cc23)C1 (stereo not drawn) [Compound 2c] | 6.5 | 2.4 | – | – | – |
| CCOc1ccc2c3c([nH]c2c1)CC(NC(C)=O)CC3 (stereo not drawn) [Compound 2L, N-(7-ethoxy-1,3,4,9-tetrahydro-2H-carbazol-2-yl)acetamide] | 2 | 2 | – | – | – |
| CC(=O)NC1CC[C@@H]2c3ccccc3N[C@@H]2C1 (stereo partly drawn) [Compound 1a, N-(cis-1,3,4,4a,9,9a-hexahydro-2H-carbazol-2-yl)acetamide hydrochloride] | 2.3 | 0.7 | – | – | – |
| CC(=O)N(C)C1CCc2c([nH]c3ccccc23)C1 (stereo not drawn) [Compound 3h, N-(1,3,4,9-tetrahydro-2H-carbazol-2-yl)-N-methylacetamide] | > 125 | > 125 | – | – | – |
| COC(=O)NC1CCC2c3ccccc3NC2C1 (stereo not drawn) [Compound 1t] | 9.7 | 5.2 | – | – | – |
| CCCCC(=O)NC1CCC2c3ccccc3NC2C1 (stereo not drawn) [Compound 1r] | 7.5 | 6.5 | – | – | – |
| CCCOc1ccc2c3c([nH]c2c1)CC(NC(C)=O)CC3 (stereo not drawn) [Compound 2m] | 0.6 | 0.6 | – | – | – |
| CCOC(=O)N(C)C1CCc2c([nH]c3ccccc23)C1 (stereo not drawn) [Compound 3g, Methyl(1,3,4,9-tetrahydro-2H-carbazol-2-yl)carbamic acid, ethyl ester] | 27 | 7.8 | – | – | – |
| CNCCCC1CN(c2ccccc2)c2ccccc21 (stereo not drawn) | – | – | antidepressant activity | – | – |

| SMILES | ED50 [1, 5] [mg/kg] | ED50 [1, 6] [mg/kg] | antidepressant activity [2] | analgetic and psychotropic activity [3] | cardiotonic effects [4] |
| --- | --- | --- | --- | --- | --- |
| CC(=O)NC1CC[C@@H]2c3ccc(O)cc3N[C@@H]2C1 (stereo partly drawn) [Compound 1g] | 15.6 | 8.1 | – | – | – |
| COc1ccc2c(c1)[C@H]1CCC(NC(C)=O)C[C@H]1N2 (stereo partly drawn) [Compound 1f] | 27 | 27 | – | – | – |
| CN(C)C1CCc2[nH]c3ccccc3c2C1 (stereo not drawn) | – | – | – | analgetic and psychotropic activity | – |
| CC(=O)NC1CC[C@@H]2c3cc(F)ccc3N[C@@H]2C1 (stereo partly drawn) [Compound 1b] | 4.2 | 2.7 | – | – | – |
| COC(=O)NC1CCc2c([nH]c3ccccc23)C1 (stereo not drawn) [Compound 3f] | > 81 | > 81 | – | – | – |
| CN(C)C1CCc2[nH]c3cc(O)ccc3c2C1 (stereo not drawn) | – | – | – | – | cardiotonic effects |
| CC(=O)NC1CC[C@@H]2c3cc(Cl)ccc3N[C@@H]2C1 (stereo partly drawn) [Compound 1c] | 14 | 3.3 | – | – | – |
| CN(C)C1CCc2c([nH]c3ccccc23)C1 (stereo not drawn) [Compound 3k] | 39 | 11.4 | – | – | – |
| CC(=O)NC1CC[C@@H]2c3ccccc3N(C)[C@@H]2C1 (stereo partly drawn) [Compound 1o, N -(cis-1,3,4,4a,9,9a-hexahydro-9-methyl-2H-carbazol-2-yl)acetamide] | 27 | 3.7 | – | – | – |
| CC(=O)NC1CCc2c([nH]c3ccccc23)C1 (stereo not drawn) [Compound 2a, N-(1,3,4,9-tetrahydro-2H-carbazol-2-yl)acetamide] | 2.4 | 1.1 | – | – | – |
| CC(=O)NC1CC[C@@H]2c3cc(Br)ccc3N[C@@H]2C1 (stereo partly drawn) [Compound 1d] | 3.3 | 2.1 | – | – | – |
| COc1ccc2c3c([nH]c2c1)CC(NC(C)=O)CC3 (stereo not drawn) [Compound 2i, N-(1,3,4,9-tetrahydro-7-methoxy-2H-carbazol-2-yl)acetamide] | 0.9 | 0.8 | – | – | – |
| CCCCOc1ccc2c3c([nH]c2c1)CC(NC(C)=O)CC3 (stereo not drawn) [Compound 2j, N-(7-n-butyloxy-1,3,4,9-tetrahydro-2H-carbazol-2-yl)acetamide] | 0.57 | 0.51 | – | – | – |
| NC1CCC2c3ccccc3NC2C1 (stereo not drawn) [Compound 1u] | 0.75 | 0.57 | – | – | – |
| CC(=O)NC1CCc2c([nH]c3c(F)cccc23)C1 (stereo not drawn) [Compound 2e] | 19.7 | 14 | – | – | – |
| CC(=O)NC1CCc2c([nH]c3ccc(F)cc23)C1 (stereo not drawn) [Compound 2b, N-(6-fluoro-1,3,4,9-tetrahydro-2H-carbazol-2-yl)acetamide] | 2.4 | 0.7 | – | – | – |
| CCCCCOc1ccc2c3c([nH]c2c1)CC(NC(C)=O)CC3 (stereo not drawn) [Compound 2n] | 4.3 | 2.7 | – | – | – |
| CNC1CCc2c([nH]c3ccccc23)C1.Cl (stereo not drawn) [Compound 3j, 2,3,4,9-Tetrahydro-N-methyl-1H-carbazol-2-amine hydrochloride] | 32 | 12 | – | – | – |
| CN(C)CCC=C1c2ccccc2CCc2ccccc21 [amitriptyline, reference compound] | 2.6 | 1.2 | – | – | – |
